Assay results taken from patent US20190016746A1, “AMINOGLYCOSIDE DERIVATIVES AND USES THEREOF IN TREATING GENETIC DISORDERS” (Eloxx Pharmaceuticals Ltd., priority 2016, published 2019).
Read-outs that look alike come from different tables or passages of the source.

Tests used:
[1] = system: prokaryotic ribosome (E. coli S30 extract); test: Prokaryotic in vitro translation inhibition, E. coli S30 extract with pBESTluc plasmid; format: biochemical; conditions: read-out: Translation Inhibition IC50^Pro
Protocol: (§1) Prokaryotic in vitro translation inhibition by the different aminoglycosides was quantified in coupled transcription/translation assays by using E. coli S30 extract for circular DNA with the pBESTluc plasmid (Promega), according to the manufacturer's protocol. Translation reactions (25 μL) that contained variable concentrations of the tested aminoglycoside were incubated at 37° C. for 60 minutes, cooled on ice for 5 minutes, and diluted with a dilution reagent (tris-phosphate buffer (25 mM, pH 7.8), DTT (2 mM), 1,2-diaminocyclohexanetetraacetate (2 mM), glycerol (10%), Triton X-100 (1%) and BSA (1 mg mL-1)) into 96-well plates. Eukaryotic in vitro translation inhibition was quantified by use of TNT® T7 Quick Coupled Transcription/Translation System with a luciferase T7 control DNA plasmid (Promega), according to the manufacturer protocol. Translation reactions (25 μL) containing variable concentrations of the tested aminoglycoside were incubated at 30° C. for 60 minutes, cooled on ice for 5 minutes, diluted with the dilution reagent and transferred into 96-well plates. In both prokaryotic and eukaryotic systems the luminescence was measured immediately after the addition of the Luciferase Assay Reagent (50 μL; Promega), and the light emission was recorded with a FLx800 Fluorescence Microplate Reader (Biotek). The half-maximal inhibition concentration (IC50) values were obtained from fitting concentration-response curves to the data of at least two independent experiments by using Grafit 5 software.
(§2) In all biological tests, all AGs were in their sulfate salt forms, and the concentrations refer to the free amine form of each AG. The eukaryotic and prokaryotic half-maximal-inhibition values (IC50^Euk and IC50^Pro) were quantified in coupled transcription/translation assays by using active luciferase detection as previously described. Minimal inhibitory concentration (MIC) values were determined by using the double-microdilution method.

[2] = target: eukaryotic cytoplasmic ribosome; test: Eukaryotic in vitro translation inhibition, TNT T7 Quick Coupled Transcription/Translation System with luciferase plasmid; format: biochemical; conditions: for IC50: read-out: Translation Inhibition IC50^Euk; for more specific to the eukaryotic ribosome than structurally related compound: NB156 vs NB74, NB157 vs NB124
Protocol: as §1, §2

E. coli R477-100 = test: Antibacterial activity, MIC by double-microdilution method; format: cell-based; conditions: for MIC: Escherichia coli, R477100, read-out: Antibacterial activity MIC E. coli R477/100
Protocol: (§3) Comparative antibacterial activities were determined in two representative strains of Gram-negative (E. coli R477-100) and Gram-positive (B. subtilis ATCC-6633) bacteria, by measuring the MIC values using the double-microdilution method according to the National Committee for Clinical Laboratory Standards (NCCLS) (NCCLS. National Committee for Clinical Laboratory Standards, Performance standards for antimicrobial susceptibility testing. Fifth information supplement: Approved Standard M100-S5; Villanova, Pa.: NCCLS, 1994.).
as §2

B. subtilis ATCC-6633 = test: as above; format: cell-based; conditions: Table 2
Protocol: as §3, §2

human fibroblast cells = conditions: cited from earlier work
[3] = system: nonsense constructs R3X (USH1), R245X (USH1), Q70X (HS), G542X (CF); test: Dual luciferase in vitro readthrough assay, four nonsense constructs; format: biochemical; conditions: all mutations tested, FIGS. 4A-D; for readthrough activity relative to structurally related compound lacking 7′-hydroxyl: NB156 vs NB74, NB157 vs NB124
From the text: (§4) DNA fragments derived from PCDH15, CFTR, and IDUA cDNAs, including the tested nonsense mutation or the corresponding wild type (wt) codon, and four to six upstream and downstream flanking codons were created by annealing the following pairs of complementary oligonucleotides:
(§5) Fragments were inserted in frame into the polylinker of the p2Luc plasmid between either BamHI and SacI (p.R3X and p.R245X) or SalI and SacI (all the rest) restriction sites. For the in vitro readthrough assays, the obtained plasmids, with addition of the tested aminoglycosides were transcribed and translated using the TNT Reticulocyte Lysate Quick Coupled Transcription/Translation System. Luciferase activity was determined after 90 minutes of incubation at 30° C., using the Dual Luciferase Reporter Assay System (Promega™).
Activity was tested using a collection of dual-luciferase reporter plasmids, containing different sequence contests around premature stop codons derived from the PCDH15, CFTR, and IDUA genes that underline USH1, CF, and MPS I-H, respectively. The exemplified nonsense reporters were R3X and R245X for USH1, G542X for CF, and Q70X for MPS I-H.
The results are averages of at least three independent experiments.

[4] = system: R3X nonsense mutation construct representing USH1 (PCDH15); test: Dual luciferase in vitro readthrough assay, R3X construct; format: biochemical; conditions: FIG. 3
From the text: as §4, §5
FIG. 3 presents comparative plots showing in vitro stop codon suppression levels induced by Compound 1 (-▪-), NB153 (-▴-), and NB155 (-Δ-) in R3X nonsense mutation construct representing USH1 genetic disease.

[5] = system: premature termination codon (PTC); test: Comparative in-vitro PTC suppression activity assays (Example 3); format: biochemical; conditions: preliminary
Protocol: as §5

[6] = system: stop codon mutations of Table 3; test: Dual-luciferase readthrough assay, broad arsenal of stop codon mutations; format: biochemical; conditions: all tested mutations
Protocol: In these assays, the readthrough of a broad arsenal of stop codon mutations in the presence of NB156 and NB157 was tested. Briefly, NB156 and NB157 were tested at escalating doses for their read-through properties towards the nonsense mutation using the wild-type (WT) sequence of each specific complementary DNA (cDNA) as a control, and plasmids bearing the stop codon mutations in a dual-luciferase assay. DNA fragments derived from different cDNAs were prepared using either the WT or nonsense mutation, in which the sequences from the mutant or wild-type codon were surrounded by four to six upstream and downstream flanking codons. The cDNA sequence was inserted into the polylinker of the p2luc plasmid for each sequence.

[7] = Table 2, sulfate salts, concentrations refer to free amine form

Compound	IC50 [1, 7] [µM]	IC50 [2, 7] [µM]	IC50 ([1]; Table 4) [µM]	IC50 ([2]; Table 4) [µM]	other results
gentamicin [reference compound]	0.03	62	–	–	Antibacterial Activity MIC E. Coli R 477/100 (E. coli R477-100; Table 2): 6 µM; Antibacterial Activity MIC B. Subtilis ATCC6633 (B. subtilis ATCC-6633): <0.75 µM
CN[C@@H]1[C@@H](O)[C@@H](O[C@@H]2[C@@H](O)[C@H](O[C@H]3O[C@H]([C@@H](C)O)[C@@H](O)[C@H](O)[C@H]3N)[C@@H](N)C[C@H]2N)OC[C@]1(C)O [Compound G418, geneticin]	–	–	–	–	LD50 (human fibroblast cells): 0.04 mg/mL
C[C@H](N)[C@H]1O[C@@H](O[C@@H]2[C@@H](O)[C@H](N)C[C@H](N)[C@H]2O[C@H]2O[C@H]([C@H](O)CO)[C@@H](O)[C@H](O)[C@H]2N)[C@@H](O)[C@H]1O [NB157, (2R,3S,4R,5R,6S)-5-amino-6-(((1R,2R,3S,4R,6S)-4,6-diamino-2-(((2S,3S,4R,5R)-5-((S)-1-aminoethyl)-3,4-dihydroxytetrahydrofuran-2-yl)oxy)-3-hydroxycyclohexyl)oxy)-2-((R)-1,2-dihydroxyethyl)tetrahydro-2H-pyran-3,4-diol]	–	1.2	–	–	readthrough activity relative to gentamicin [3]: significantly better; readthrough activity relative to structurally related compound lacking 7′-hydroxyl [3]: better; more specific to the eukaryotic ribosome than structurally related compound [2]: 1.25 fold
N[C@H]1[C@@H](O[C@H]2[C@H](O)[C@@H](O)[C@H](N)C[C@@H]2N)O[C@H]([C@H](O)CO)[C@@H](O)[C@@H]1O [NB153, (2R,3S,4R,5R,6S)-5-amino-6-(((1R,2R,3S,4R,6S)-4,6-diamino-2,3-dihydroxycyclohexyl)oxy)-2-((R)-1,2-dihydroxyethyl)tetrahydro-2H-pyran-3,4-diol]	11 ± 1.2	120 ± 14.5	–	–	in vitro readthrough activity relative to Compound 1 [4]: dramatically increases
CC(O)C1O[C@H](O[C@@H]2C(N)C[C@@H](N)C(O)C2O[C@@H]2O[C@H]([C@H](C)N)C(O)C2O)C(N)C(O)[C@@H]1O (single isomer, unassigned) [NB124, reference compound]	1.1 ± 0.2	1.5 ± 0.1	–	–	MIC (E. coli R477-100): 1270 µM
N[C@H]1[C@@H](O[C@H]2[C@H](O)[C@@H](O)[C@H](N)C[C@@H]2N)O[C@H]([C@@H](O)CO)[C@@H](O)[C@@H]1O [NB155, (2R,3S,4R,5R,6S)-5-amino-6-(((1R,2R,3S,4R,6S)-4,6-diamino-2,3-dihydroxycyclohexyl)oxy)-2-((S)-1,2-dihydroxyethyl)tetrahydro-2H-pyran-3,4-diol]	91.9 ± 8.4	516 ± 15	–	–	in vitro readthrough activity relative to Compound 1 [4]: somewhat higher activity
N[C@H]1[C@@H](O[C@H]2[C@H](O)[C@@H](O)[C@H](N)C[C@@H]2N)OC(CO)=C[C@@H]1O [NB154, (1S,2R,3R,4S,6R)-4,6-diamino-3-(((2S,3R,4S)-3-amino-4-hydroxy-6-(hydroxymethyl)-3,4-dihydro-2H-pyran-2-yl)oxy)cyclohexane-1,2-diol]	–	–	82.3 ± 11.9	376 ± 38.6	readthrough activity relative to NB82 [5]: more or less similar activity; readthrough activity relative to paromamine [5]: ~3.5 fold
C[C@H](N)[C@H]1O[C@@H](O[C@@H]2C(O)[C@H](N)CC(N)[C@H]2O[C@H]2OC(CO)=CC(O)[C@@H]2N)C(O)[C@H]1O (stereo partly shown) [NB159]	–	–	134 ± 2.8	47.9 ± 3.3	MIC (E. coli R477-100): > 192 µg/mL
NC[C@H]1O[C@@H](O[C@@H]2C(O)[C@H](N)CC(N)[C@H]2O[C@H]2OC(CO)=CC(O)[C@@H]2N)C(O)[C@H]1O (stereo partly shown) [NB158]	–	–	36.4 ± 3.5	70.7 ± 2.4	MIC (E. coli R477-100): > 192 µg/mL
NC[C@H]1O[C@@H](OC2C(O)[C@H](N)CC(N)[C@H]2O[C@H]2OC(CO)[C@@H](O)C(O)C2N)C(O)C1O (stereo partly shown) [NB30, reference compound]	–	–	0.45 ± 0.03	31 ± 4	–
N[C@H]1[C@@H](O[C@H]2[C@H](O)[C@@H](O)[C@H](N)C[C@@H]2N)O[C@H](CO)[C@@H](O)[C@@H]1O [Paro., paromamine, reference compound]	–	–	14 ± 1.2	760 ± 79	–
NC[C@H]1O[C@@H](O[C@@H]2[C@@H](O)[C@H](N)C[C@H](N)[C@H]2O[C@H]2O[C@H]([C@H](O)CO)[C@@H](O)[C@H](O)[C@H]2N)[C@@H](O)[C@H]1O [NB156, (2R,3S,4R,5R,6S)-5-amino-6-(((1R,2R,3S,4R,6S)-4,6-diamino-2-(((2S,3S,4R,5R)-5-(aminomethyl)-3,4-dihydroxytetrahydrofuran-2-yl)oxy)-3-hydroxycyclohexyl)oxy)-2-((R)-1,2-dihydroxyethyl)tetrahydro-2H-pyran-3,4-diol]	0.7 ± 0.1	7.5 ± 0.5	–	–	stop-codon mutation readthrough activity compared to NB74 [6]: more active than NB74; readthrough activity relative to gentamicin [3]: significantly better; readthrough activity relative to structurally related compound lacking 7′-hydroxyl [3]: substantially better; more specific to the eukaryotic ribosome than structurally related compound [2]: 1.85 fold
C[C@H](N)[C@H]1O[C@@H](OC2C(O)[C@H](N)CC(N)[C@H]2O[C@H]2OC(CO)[C@@H](O)C(O)C2N)C(O)C1O (stereo partly shown) [NB118, reference compound]	–	–	1.9 ± 0.2	15.5 ± 1.3	–
